Laboratory results taken from patent US5466811A, “Dioxolenylmethyl carbamates pro moieties for amine drugs” (Merck & Co., Inc., priority 1994, dated 1995).

Key:
rats = settings: oral administration, Sakamoto, et al, Chem. Pharm. Bull., 1985, 33, 4870; cited from earlier work
in vitro = in vitro ADME; settings: rat, plasma
Procedure: The process of hydrolysis of the dioxolenylmethyl carbamate of 3,4-dimethoxyphenethylamine was studied by measuring the formation of dimethoxyphenethylamine at 37° C. in neat rat plasma. The reaction was initiated by adding a dimethyl sulfoxide (DMSO) solution of the carbamate to the reaction medium pre-equilibrated at 37° C. in a thermostated water bath. The initial concentrations of the carbamate in rat plasma was 4.3×10^-3 M and the concentration of DMSO was 10%. Samples (100 μL of acetonitrile, vortex mixed for 30 seconds to precipitate the plasma proteins, and centrifuged at 10,000 X g for 5 minutes. The supematants were injected directly and analyxed by HPLC. The HPLC column used was a 10 cm spheri-5 RP-18 column combined with a similar 3 cm guard column. The mobile phase used for the analysis of dimethoxyphenethylamine was 30% v/v of acetonitrile in water containing 0.5 mL/L of 85% phosphoric acid and 0.5 mL/L of triethylamine at a flow rate of 2 mL per minute. The concentration was measured at 280 nm using a variable wave length UV detector. The retention time of dimethoxyphenethylamine under these conditions was 5.8 minutes.

| SMILES | regeneration of the parent drug (rats) | half-life at 4300 µM (in vitro) [min] |
| --- | --- | --- |
| CCn1cc(C(=O)O)c(=O)c2cc(F)c(N3CCN(Cc4oc(=O)oc4C)CC3)cc21 [alkylated nofloxacin] | regenerated the parent drug | – |
| COc1ccc(CCNC(=O)OCc2oc(=O)oc2C)cc1OC [5'-methyl-2'-oxo-1',3'-dioxol-4'-enyl-4'-methylcarbamoyl-3,4-dimethoxyphenethylamine] | – | 11 |
